Assay results as given in the supplement of paper PMC10307832.

Columns and labels:
Experiment in all cases: relative viability (nuclei count vs DMSO), 5 days (fraction); higher = more cells survive
Dinaciclib + Trametinib = compound: CCc1cnn2c(NCc3ccc[n+]([O-])c3)cc(N3CCCC[C@H]3CCO)nc12 [Dinaciclib] + CC(=O)Nc1cccc(-n2c(=O)n(C3CC3)c(=O)c3c(Nc4ccc(I)cc4F)n(C)c(=O)c(C)c32)c1 [Trametinib] (partner 0.02 µM)
Outline: (§1)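 A single step with final 0.05% Triton X-100, 1% formaldehyde and 1 ug/ml Hoechst fixed the cells and stained nuclei 5 days after treatment. Lung cancer cell lines in 1536-well plates had been treated by pin tool the day after seeding with one drug alone or a fixed anchor-drug dose plus five library-drug doses (not always all listed) in √10 steps, and nuclei were counted on 4× images. Relative viability is the ratio of nuclei in treated wells to nuclei in vehicle wells, taken as the median of duplicate plates.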

Dinaciclib + Luminespib = compound: CCc1cnn2c(NCc3ccc[n+]([O-])c3)cc(N3CCCC[C@H]3CCO)nc12 [Dinaciclib] + CCNC(=O)c1noc(-c2cc(C(C)C)c(O)cc2O)c1-c1ccc(CN2CCOCC2)cc1 [Luminespib] (partner 0.01 µM)
Outline: as §1

Dinaciclib + Palbociclib = compound: CCc1cnn2c(NCc3ccc[n+]([O-])c3)cc(N3CCCC[C@H]3CCO)nc12 [Dinaciclib] + CC(=O)c1c(C)c2cnc(Nc3ccc(N4CCNCC4)cn3)nc2n(C2CCCC2)c1=O [Palbociclib] (partner 0.5 µM)
Outline: as §1

Dinaciclib + Pictilisib = compound: CCc1cnn2c(NCc3ccc[n+]([O-])c3)cc(N3CCCC[C@H]3CCO)nc12 [Dinaciclib] + CS(=O)(=O)N1CCN(Cc2cc3nc(-c4cccc5[nH]ncc45)nc(N4CCOCC4)c3s2)CC1 [Pictilisib] (partner 1 µM)
Outline: as §1

Dinaciclib + Lapatinib = compound: CCc1cnn2c(NCc3ccc[n+]([O-])c3)cc(N3CCCC[C@H]3CCO)nc12 [Dinaciclib] + CS(=O)(=O)CCNCc1ccc(-c2ccc3ncnc(Nc4ccc(OCc5cccc(F)c5)c(Cl)c4)c3c2)o1 [Lapatinib] (partner 2 µM)
Outline: as §1

| Cell Line | relative viability (Dinaciclib + Trametinib; first compound 0.009487 µM) | relative viability (Dinaciclib + Trametinib; first compound 0.03 µM) | relative viability (Dinaciclib + Trametinib; first compound 0.09487 µM) | relative viability (Dinaciclib + Trametinib; first compound 0.3 µM) | relative viability (Dinaciclib + Luminespib; first compound 0.009487 µM) | relative viability (Dinaciclib + Luminespib; first compound 0.03 µM) | relative viability (Dinaciclib + Luminespib; first compound 0.09487 µM) | relative viability (Dinaciclib + Luminespib; first compound 0.3 µM) | relative viability (Dinaciclib + Palbociclib; first compound 0.009487 µM) | relative viability (Dinaciclib + Palbociclib; first compound 0.03 µM) | relative viability (Dinaciclib + Palbociclib; first compound 0.09487 µM) | relative viability (Dinaciclib + Palbociclib; first compound 0.3 µM) | relative viability (Dinaciclib + Pictilisib; first compound 0.009487 µM) | relative viability (Dinaciclib + Pictilisib; first compound 0.03 µM) | relative viability (Dinaciclib + Pictilisib; first compound 0.09487 µM) | relative viability (Dinaciclib + Pictilisib; first compound 0.3 µM) | relative viability (Dinaciclib + Lapatinib; first compound 0.009487 µM) | relative viability (Dinaciclib + Lapatinib; first compound 0.03 µM) | relative viability (Dinaciclib + Lapatinib; first compound 0.09487 µM) | relative viability (Dinaciclib + Lapatinib; first compound 0.3 µM) |
| --- | --- | --- | --- | --- | --- | --- | --- | --- | --- | --- | --- | --- | --- | --- | --- | --- | --- | --- | --- | --- |
| NCI-H3122 | 0.292 | 0.102 | 0.0935 | 0.0911 | 0.115 | 0.122 | 0.0991 | 0.0858 | 0.175 | 0.108 | 0.0876 | 0.0895 | 0.385 | 0.178 | 0.134 | 0.13 | 1.01 | 0.185 | 0.147 | 0.169 |
| PC-3 [JPC-3] | 0.737 | 0.657 | 0.334 | 0.321 | 0.668 | 0.417 | 0.219 | 0.199 | 0.535 | 0.489 | 0.365 | 0.29 | 0.556 | 0.578 | 0.262 | 0.233 | 0.431 | 0.419 | 0.365 | 0.23 |
| PC-14 | 0.412 | 0.0589 | 0.0476 | 0.0471 | 0.146 | 0.0837 | 0.0681 | 0.0507 | 0.215 | 0.0424 | 0.0361 | 0.0423 | 0.436 | 0.145 | 0.0318 | 0.0249 | 0.305 | 0.221 | 0.106 | 0.0778 |
| RERF-LC-KJ | 0.753 | 0.22 | 0.143 | 0.152 | 0.452 | 0.195 | 0.179 | 0.208 | 0.907 | 0.216 | 0.139 | 0.157 | 0.448 | 0.19 | 0.124 | 0.117 | 0.958 | 0.563 | 0.151 | 0.128 |
| SK-LU-1 | 0.517 | 0.176 | 0.205 | 0.186 | 0.198 | 0.138 | 0.115 | 0.118 | 0.393 | 0.229 | 0.17 | 0.165 | 0.57 | 0.167 | 0.155 | 0.152 | 0.717 | 0.178 | 0.129 | 0.13 |
| SK-MES-1 | 0.536 | 0.175 | 0.192 | 0.178 | 0.428 | 0.131 | 0.167 | 0.152 | 0.327 | 0.179 | 0.18 | 0.154 | 0.381 | 0.24 | 0.128 | 0.128 | 0.5 | 0.355 | 0.16 | 0.151 |
| SW 1573 | 0.404 | 0.0877 | 0.0832 | 0.0755 | 0.126 | 0.0666 | 0.0548 | 0.0868 | 0.218 | 0.0747 | 0.0634 | 0.0773 | 0.452 | 0.225 | 0.0748 | 0.064 | 1.25 | 0.575 | 0.0951 | 0.0867 |
| UMC-11 | 0.253 | 0.172 | 0.132 | 0.146 | 0.271 | 0.177 | 0.158 | 0.174 | 0.29 | 0.173 | 0.177 | 0.167 | 0.217 | 0.145 | 0.132 | 0.136 | 0.442 | 0.179 | 0.143 | 0.169 |
